Values of other authors in patent US6693094B2, “Biguanide and sulfonylurea formulations for the prevention and treatment of insulin resistance and type 2 diabetes mellitus” (Chrono RX LLC, priority 2001, dated 2004).
Blank lines part the entries; values can stand above or below the molecule they belong to.

Experiments:
[1] = test system: insulin-resistant type 2 diabetes patients
[2] = test system: insulin secreting β-cells; conditions: hyperglycemic conditions
[3] = in vivo
[4] = test system: obese type 2 diabetes patients; conditions: 600 mg/day, used alone
[5] = test system: patients with essential hypertension and coronary artery disease; conditions: 60 mg twice daily for 8 weeks, oral
pancreatic islets = conditions: islets exposed to IL-1 beta
sulfonylurea receptor = sulfonylurea receptor (Homo sapiens, UniProt Q09428); conditions: sulfonylurea receptors of the β-cell membrane
Chain of sulfonylurea receptor (Q09428 whole entry): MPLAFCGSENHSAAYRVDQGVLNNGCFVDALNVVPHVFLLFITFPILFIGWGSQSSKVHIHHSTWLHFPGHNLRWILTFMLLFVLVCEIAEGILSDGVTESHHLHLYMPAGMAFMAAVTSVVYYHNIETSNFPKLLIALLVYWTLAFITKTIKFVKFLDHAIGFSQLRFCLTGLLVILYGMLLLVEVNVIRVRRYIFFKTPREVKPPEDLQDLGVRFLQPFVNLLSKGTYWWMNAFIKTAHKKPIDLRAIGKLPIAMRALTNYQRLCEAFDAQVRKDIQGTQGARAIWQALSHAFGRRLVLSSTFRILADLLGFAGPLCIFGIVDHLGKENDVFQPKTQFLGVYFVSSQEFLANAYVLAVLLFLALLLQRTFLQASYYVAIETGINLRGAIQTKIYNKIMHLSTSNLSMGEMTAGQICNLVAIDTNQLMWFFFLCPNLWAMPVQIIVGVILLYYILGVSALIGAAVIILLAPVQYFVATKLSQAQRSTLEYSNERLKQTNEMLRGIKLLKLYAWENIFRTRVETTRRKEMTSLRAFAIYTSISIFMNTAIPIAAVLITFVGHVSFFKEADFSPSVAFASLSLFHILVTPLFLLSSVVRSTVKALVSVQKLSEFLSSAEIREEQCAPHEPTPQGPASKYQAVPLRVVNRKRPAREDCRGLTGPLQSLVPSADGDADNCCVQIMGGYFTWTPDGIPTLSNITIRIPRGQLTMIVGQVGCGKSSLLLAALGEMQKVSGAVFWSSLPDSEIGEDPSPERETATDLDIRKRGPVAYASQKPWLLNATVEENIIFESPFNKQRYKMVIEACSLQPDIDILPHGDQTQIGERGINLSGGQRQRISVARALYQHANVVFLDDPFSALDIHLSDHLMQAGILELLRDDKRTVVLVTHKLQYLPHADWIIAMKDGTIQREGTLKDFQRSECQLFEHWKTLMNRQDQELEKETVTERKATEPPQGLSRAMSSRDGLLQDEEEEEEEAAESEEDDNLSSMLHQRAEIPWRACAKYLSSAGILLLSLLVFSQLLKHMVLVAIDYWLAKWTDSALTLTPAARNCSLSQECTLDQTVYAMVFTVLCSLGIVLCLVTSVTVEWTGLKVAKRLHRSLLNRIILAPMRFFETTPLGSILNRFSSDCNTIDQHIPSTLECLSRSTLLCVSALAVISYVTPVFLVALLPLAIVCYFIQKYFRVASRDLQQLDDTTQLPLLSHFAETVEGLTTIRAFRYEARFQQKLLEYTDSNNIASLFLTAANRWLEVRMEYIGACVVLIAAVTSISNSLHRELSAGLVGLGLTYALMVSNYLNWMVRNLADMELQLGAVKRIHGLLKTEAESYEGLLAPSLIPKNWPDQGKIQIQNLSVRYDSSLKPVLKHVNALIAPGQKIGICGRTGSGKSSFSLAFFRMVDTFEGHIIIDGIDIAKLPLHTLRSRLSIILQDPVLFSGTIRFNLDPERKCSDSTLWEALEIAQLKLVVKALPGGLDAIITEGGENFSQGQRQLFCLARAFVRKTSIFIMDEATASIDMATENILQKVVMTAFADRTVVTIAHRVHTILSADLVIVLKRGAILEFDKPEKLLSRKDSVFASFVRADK
Chain of sulfonylurea receptor (Q14654 whole entry partner): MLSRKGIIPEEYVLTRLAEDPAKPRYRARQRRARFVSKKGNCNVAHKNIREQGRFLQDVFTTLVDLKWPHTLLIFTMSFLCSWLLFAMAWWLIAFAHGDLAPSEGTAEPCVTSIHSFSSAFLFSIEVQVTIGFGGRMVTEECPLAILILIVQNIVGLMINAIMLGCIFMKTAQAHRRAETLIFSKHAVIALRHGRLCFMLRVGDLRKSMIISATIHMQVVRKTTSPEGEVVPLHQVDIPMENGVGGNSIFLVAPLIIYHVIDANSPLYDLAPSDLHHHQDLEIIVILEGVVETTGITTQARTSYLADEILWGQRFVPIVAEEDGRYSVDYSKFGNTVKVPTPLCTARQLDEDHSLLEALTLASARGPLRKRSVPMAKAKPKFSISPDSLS

[6] = in vivo; remark: listed apart in the source
[7] = in vivo; remark: listed apart in the source

Molecule: O=S(=O)([O-])[O-].[O]=[V+2] [vanadyl sulfate]
- time effects are sustained after discontinuation ([1]; 100 mg/day for 3 weeks): up to 2 weeks
- hepatic and peripheral insulin sensitivity ([1]; 100 mg/day, after 3 weeks): appear to improve

Molecule: O=C1O[C@H]([C@@H](O)CO)C(O)=C1O [ascorbate, ascorbic acid]
- decrease of cellular insulin glycation [2]: 66-80%

Molecule: CC(=O)c1ccc(S(=O)(=O)NC(=O)NC2CCCCC2)cc1 [Acetohexamide]
- Duration of Action [3]: 12 to 18 h

Molecule: CCC1=C(C)CN(C(=O)NCCc2ccc(S(=O)(=O)NC(=O)N[C@H]3CC[C@H](C)CC3)cc2)C1=O [Glimepiride]
- Duration of Action [3]: 16 to 24 h

Molecule: vitamin E
- insulin efficiency and fibrinolysis [4]: may further worsen insulin efficiency and increase fibrinolysis

Molecule: COC1=C(OC)C(=O)C(C/C=C(\C)CC/C=C(\C)CC/C=C(\C)CC/C=C(\C)CC/C=C(\C)CC/C=C(\C)CC/C=C(\C)CC/C=C(\C)CC/C=C(\C)CCC=C(C)C)=C(C)C1=O [coenzyme Q10, Ubiquinone]
- HDL-cholesterol [5]: increased
- systolic and diastolic blood pressure, fasting and 2-h plasma insulin, glucose, triglycerides, lipid peroxides, malondialdehyde and diene conjugates [5]: all reduced

Molecule: NC(=O)c1cccnc1 [nicotinamide, Nicotinamide]
- concentration of maximum recovery of glucose-induced insulin secretion (pancreatic islets): 25 mmol/L

Molecule: COc1ccc(Cl)cc1C(=O)NCCc1ccc(S(=O)(=O)NC(=O)NC2CCCCC2)cc1 [Glyburide]
- glycolytic flux and lactate production (perfused rat hearts): dramatic increase

Molecule: CCCCNC(=O)NS(=O)(=O)c1ccc(C)cc1 [Tolbutamide]
- Duration of Action [3]: 6 to 12 h

- concentration range that saturates receptors (sulfonylurea receptor): low nM
Molecule: Cc1cnc(C(=O)NCCc2ccc(S(=O)(=O)NC(=O)NC3CCCCC3)cc2)cn1 [Glipizide]
- Duration of Action [3]: 12 to 24 h

- frequency of lactic acidosis [6]: 3 cases per 100,000 patient-years
Molecule: CN(C)C(=N)N=C(N)N [Metformin, metformin]
- incidence of lactic acidosis [6]: 0.03 /1,000 patient-years exposure

Molecule: CCCNC(=O)NS(=O)(=O)c1ccc(Cl)cc1 [Chlorpropamide]
- Duration of Action [3]: 60 h

Molecule: [Cr] [Cr, Chromium]
- reduction of metformin requirements [7]: more than one-half
